As a reminder, the IC50 is the concentration at which inhibition is half-maximal.

The record followed here is ChEMBL document CHEMBL4130361, “Synthesis, molecular modeling studies and bronchodilation properties of nicotinonitrile containing-compounds” (Eur J Med Chem, 2017).

In one assay the test system is Trachea. In words: Induction of bronchodilation in guinea pig tracheal rings assessed as reduction in histamine-induced contractions. The format is functional, tissue-based. The note with it: Cavia porcellus.
Turning to `COc1nc(-c2ccncc2)cc(-c2ccc(Cl)cc2Cl)c1C#N`, the IC50 stood at 11.8 µM. With `N#Cc1c(-c2ccc(Cl)cc2Cl)cc(-c2ccc(Cl)cc2)nc1N1CCOCC1`, the IC50 came to 6.71 µM. Regarding `CCOc1nc(-c2cccs2)cc(-c2ccc(Cl)cc2Cl)c1C#N`, the IC50 turned out to be 8.71 µM. `COc1nc(-c2ccccc2)cc(-c2ccc(Cl)cc2Cl)c1C#N`: the IC50 was 5.34 µM. Take `CCOc1nc2c(c(-c3ccc(Cl)cc3Cl)c1C#N)-c1ccccc1CC2`: the IC50 was found to be 7.07 µM. As to `COc1nc(-c2ccc(Br)cc2)cc(-c2ccc(Cl)cc2Cl)c1C#N`, the IC50 stood at 8.02 µM. `COc1ccc(-c2cc(-c3ccc(Cl)cc3Cl)c(C#N)c(OC)n2)cc1`: the IC50 was 9.89 µM. Consider `COc1nc2c(c(-c3ccc(Cl)cc3Cl)c1C#N)CSc1ccccc1-2`, for which the IC50 turned out to be 11 µM.

`N#Cc1c(-c2ccc(Cl)cc2Cl)cc(-c2ccc(Cl)cc2)nc1Br`: the IC50 was determined as 9.14 µM. As for `COc1cc2c(cc1OC)-c1nc(OC)c(C#N)c(-c3ccc(Cl)cc3Cl)c1C2`, the IC50 is 6.8 µM. Still for that read-out and setting: as for `COc1nc(-c2cccs2)cc(-c2ccc(Cl)cc2Cl)c1C#N`, the figure is 3.28 µM; as for `COc1nc2c(c(-c3ccc(Cl)cc3Cl)c1C#N)-c1ccccc1C2`, 9.11 µM; as for `CN1CCN(c2nc(-c3ccc(Cl)cc3)cc(-c3ccc(Cl)cc3Cl)c2C#N)CC1`, 13 µM.

Consider `COc1nc2c(c(-c3ccc(Cl)cc3Cl)c1C#N)CCCc1ccccc1-2`, for which the IC50 came out at 10 µM.

For the molecule `COc1nc(-c2ccc3ccccc3c2)cc(-c2ccc(Cl)cc2Cl)c1C#N`, the IC50 worked out at 9.4 µM. Turning to `CCOc1nc(-c2ccc(F)cc2)cc(-c2ccc(Cl)cc2Cl)c1C#N`, the IC50 came to 8.02 µM. For the molecule `COc1nc(-c2ccc(Cl)cc2)cc(-c2ccc(Cl)cc2Cl)c1C#N`, the IC50 amounted to 7.55 µM. Turning to `COc1nc(-c2ccc(C)cc2)cc(-c2ccc(Cl)cc2Cl)c1C#N`, the IC50 is 10.6 µM.

As to `CCN1CCN(c2nc(-c3ccc(Cl)cc3)cc(-c3ccc(Cl)cc3Cl)c2C#N)CC1`, the IC50 was found to be 15.8 µM. Consider `N#Cc1c(-c2ccc(Cl)cc2Cl)cc(-c2ccc(Cl)cc2)nc1N1CCCCC1`, for which the IC50 was determined as 7.83 µM. With `COc1nc2c(c(-c3ccc(Cl)cc3Cl)c1C#N)-c1ccccc1CC2`, the IC50 was found to be 6.36 µM. As for `CCOc1nc(-c2ccc(Br)cc2)cc(-c2ccc(Cl)cc2Cl)c1C#N`, the IC50 came to 12.4 µM. In the case of `COc1nc(-c2cccnc2)cc(-c2ccc(Cl)cc2Cl)c1C#N`, the IC50 came to 17.1 µM. On to `COc1ccc(-c2cc(-c3ccc(Cl)cc3Cl)c(C#N)c(OC)n2)cc1OC`, for which the IC50 turned out to be 7.91 µM. As to `CCOc1nc2c(c(-c3ccc(Cl)cc3Cl)c1C#N)-c1ccccc1C2`, the concentration for half-maximal inhibition (IC50) came to 11 µM. Consider `CCOc1nc2c(c(-c3ccc(Cl)cc3Cl)c1C#N)CCCc1ccccc1-2`, for which the 50% inhibitory concentration (IC50) came out at 13 µM.

For the molecule `COc1nc(-c2ccc(F)cc2)cc(-c2ccc(Cl)cc2Cl)c1C#N`, the IC50 came to 7.43 µM. Regarding `COc1nc2c(c(-c3ccc(Cl)cc3Cl)c1C#N)COc1ccccc1-2`, the IC50 was 6.11 µM. Take `CCOc1nc(-c2ccc(Cl)cc2)cc(-c2ccc(Cl)cc2Cl)c1C#N`: the IC50 came to 9.38 µM. With `Cn1c(=O)c2nc[nH]c2n(C)c1=O` [THEOPHYLLINE], the IC50 was found to be 11.6 µM.

The next assay concerns Trachea. In words: Potency index, ratio of theophylline IC50 to test compound IC50 for reduction in histamine-induced contractions in guinea pig tracheal rings.
Details: not given
Format: functional, Cavia porcellus.
Take `COc1nc(-c2ccccc2)cc(-c2ccc(Cl)cc2Cl)c1C#N`: the “Ratio IC50” value was found to be 2.
